According to publication PMC3615439 (Medicinal chemistry, 2011):

Key:
[1] = target: σ1 receptors (Cavia porcellus, UniProt Q60492); assay: σ1 receptor binding, competition against [3H]; design: species or system guinea pig; conditions: for Hill Slope: guinea pig brain membranes, mean ± SEM; for fold lower σ1 receptor affinity than positional isomers: 2-substituted ligand versus its 3- and/or 4-substituted isomers
[2] = Lipophilicity by reverse-phase HPLC; assay type: physicochemical; conditions: aqueous phase pH 7.5, text calls it log k′w

Sequence of σ1 receptors (Q60492 whole entry): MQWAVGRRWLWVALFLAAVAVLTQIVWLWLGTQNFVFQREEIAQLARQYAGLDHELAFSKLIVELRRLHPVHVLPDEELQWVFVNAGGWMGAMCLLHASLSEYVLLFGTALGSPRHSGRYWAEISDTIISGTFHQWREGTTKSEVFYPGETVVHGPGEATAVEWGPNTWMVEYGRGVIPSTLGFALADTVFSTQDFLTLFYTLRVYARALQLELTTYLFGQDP

Row | SMILES | IC50 [1] [nM] | Ki [1] [nM] | Hill Slope [1] | k′w [2] | fold lower σ1 receptor affinity than positional isomers [1] [fold] | fold poorer Ki value than compounds 6 or 9 ([1]; 4-iodo versus 4-fluoro or 4-bromo derivative) [fold]
1 | Clc1ccc(CCNCCNCCc2cccc(Br)c2)cc1Cl [Compound 8, N-[2-(3-Bromophenyl)-ethyl]-N′-[2-(3,4-dichlorophenyl)-ethyl]-ethane-1,2-diamine] | 9.14 ± 0.85 | 6.35 ± 0.59 | −1.02 ± 0.15 | 3.06 ± 0.07 | – | –
2 | Fc1cccc(CCNCCNCCc2ccc(Cl)c(Cl)c2)c1 [Compound 5, N-[2-(3,4-Dichlorophenyl)-ethyl]-N′-[2-(3-fluorophenyl)-ethyl]-ethane-1,2-diamine] | 11.2 ± 1.29 | 7.74 ± 0.89 | −1.13 ± 0.09 | 2.54 | – | –
3 | Clc1ccc(CCNCCNCCc2ccc(Br)cc2)cc1Cl [Compound 9, N-[2-(4-Bromophenyl)-ethyl]-N′-[2-(3,4-dichlorophenyl)-ethyl]-ethane-1,2-diamine] | 9.85 ± 3.92 | 6.8 ± 2.71 | −1.00 ± 0.02 | 3.31 ± 0.08 | – | –
4 | Fc1ccc(CCNCCNCCc2ccc(Cl)c(Cl)c2)cc1 [Compound 6, N-[2-(3,4-Dichlorophenyl)-ethyl]-N′-[2-(4-fluorophenyl)-ethyl]-ethane-1,2-diamine] | 11.3 ± 2.02 | 7.83 ± 1.39 | −1.21 ± 0.05 | 2.54 ± 0.05 | – | –
5 | Clc1ccc(CCNCCNCCc2ccccc2I)cc1Cl [Compound 10, N-[2-(3,4-Dichlorophenyl)-ethyl]-N′-[2-(2-iodophenyl)-ethyl]-ethane-1,2-diamine] | 62.5 ± 0.96 | 43.2 ± 0.66 | −1.12 ± 0.03 | – | 2.7 | –
6 | Fc1ccccc1CCNCCNCCc1ccc(Cl)c(Cl)c1 [Compound 4, N-[2-(3,4-Dichlorophenyl)-ethyl]-N′-[2-(2-fluorophenyl)-ethyl]-ethane-1,2-diamine] | 17.5 ± 0.31 | 12.1 ± 0.22 | −1.07 ± 0.01 | – | 1.5 | –
7 | Clc1ccc(CCNCCNCCc2ccc(I)cc2)cc1Cl [Compound 11, N-[2-(3,4-Dichlorophenyl)-ethyl]-N′-[2-(4-iodophenyl)-ethyl]-ethane-1,2-diamine] | 22.9 ± 0.94 | 15.8 ± 0.65 | −1.59 ± 0.08 | 3.71 ± 0.05 | – | 2
8 | Clc1ccc(CCNCCNCCc2ccccc2Br)cc1Cl [Compound 7, N-[2-(2-Bromophenyl)-ethyl]-N′-[2-(3,4-dichlorophenyl)-ethyl]-ethane-1,2-diamine] | 26.6 ± 3.95 | 18.4 ± 2.73 | −0.78 ± 0.03 | 3.09 ± 0.05 | 2.7 | –
